Test results as given in ChEMBL document CHEMBL1145311 (Bioorg Med Chem Lett, 2006).

Target: T1, Dihydrofolate reductase (Pneumocystis carinii, UniProt P16184)
T1 sequence (P16184 whole entry): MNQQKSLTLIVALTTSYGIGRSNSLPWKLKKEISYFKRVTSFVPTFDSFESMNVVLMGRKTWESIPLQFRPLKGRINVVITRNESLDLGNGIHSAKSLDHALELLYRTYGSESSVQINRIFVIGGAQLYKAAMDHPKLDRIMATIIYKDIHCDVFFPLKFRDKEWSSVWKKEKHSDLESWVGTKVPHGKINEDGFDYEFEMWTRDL
Description: Inhibition of Pneumocystis carinii DHFR

IC50: 210 nM
SMILES: Nc1nc(N)c2nc(CN3c4ccccc4CCc4ccccc43)cnc2n1
